Legend:
Type in all cases: cell-based, Chlamydomonas reinhardtii
[1] = tested on: C. reinhardtii UTEX 2244 and transformants; test: Rose Bengal photooxidative stress kill curves in liquid culture; settings: 2 μM Rose Bengal, within the first five hours of exposure
Protocol: Exposure of C. reinhardtii to Rose Bengal was performed as follows. In order to induce apoptosis in C. reinhardtii by the mechanism of photooxidative stress, algal cells were grown on solid medium containing various concentrations of the photosensitizing dye Rose Bengal as described in Fischer et al. (Plant Sci, 168:747-759 (2005)). Duplicate plates with RB levels as high as up to 2.0 μM were initially spread with 1×10^3 cells and resulting colonies were counted after a: period of one week. UTEX 2244 was used as a control. Cell viability is reported as a percentage of surviving cells. Additionally, kill curves were conducted in liquid culture using 100-ml stirrer flasks under the same cultivation conditions mentioned previously, with the exception of aeration. Each culture was seeded with an inoculum of exponentially growing cells (1×10^6 cells ml^−1) and the cell density was measured with a Zeiss Axiovert™ 100 inverted light microscope using a hemocytometer over a one-week period. In the experimental flasks, 100x RB dissolved in isopropanol stock solution was added three days after inoculation to cultures of approximately 0.2×10^6 cells ml^−1 in order achieve a final concentration of 2.0 μM; control flasks were unaltered.

[2] = tested on: C. reinhardtii UTEX 2244; test: Minimum inhibitory bleocin concentration on solid medium, wild-type cells
Protocol: (§1) Exposure of C. reinhardtii to antibiotic selective pressure was performed as follows. In order to test the efficacy of the antibiotic bleocin (EMD Biosciences) on C. reinhardtii UTEX 2244, algal cells were grown on solid medium containing various concentrations of this selective agent—0, 0.25, 0.5, 1.0, 2.0, 4.0, 6.0, and 8.0 mg L^−1. Duplicate plates were initially spread with either 1×10^3 or 5×10^7 wild-type cells and the cultures' viability was examined over a period of two weeks. Once stable transformants were obtained, this experiment was repeated with a mixed population of wild-type and bleomycin-resistant cells (5×10^7:1×10^3) to verify the emergence of individual colonies from the surrounding lawn of algal cells.

[3] = tested on: bleomycin-resistant C. reinhardtii stable transformants; test: Bleocin kill curves on solid medium, mixed population of wild-type and bleomycin-resistant cells; settings: mixed population wild-type:bleomycin-resistant cells 5×10^7:1×10^3, solid medium, two weeks
Protocol: as §1

Compound | effect on cell populations [1] | minimum inhibitory concentration (M.I.C.) to eradicate the entire population ([2]; high density lawn, 5×10^7 cells per plate, two-week incubation) | concentration sufficient to completely inhibit growth (absence of colony formation) ([2]; low density, 1,000 cells per plate, solid medium) [mg/L] | concentration giving widespread cell death ([2]; within only four days of exposure) | bleocin concentration in which some stable transformants were able to survive [3] [mg/L]
O=C([O-])c1c(Cl)c(Cl)c(Cl)c(Cl)c1-c1c2cc(I)c(=O)c(I)c-2oc2c(I)c([O-])c(I)cc12.[Na+].[Na+] [Rose Bengal] | all populations experienced some cell death | – | – | – | –
bleocin | – | at least 1 mg L^−1 | 0.25 | more than 4 mg L^−1 | ≤ 8

— patent US20160186196A1 (priority 2009, published 2016)
